Measurements as given in BindingDB's records for doi:10.1111/j.1747-0285.2010.01036.x (Ataturk University, 2010).

Biological target: Serum paraoxonase/arylesterase 1 (Homo sapiens, UniProt P27169)
Assay: In Vitro Inhibtion Assay
Description: The inhibitory effects of six sulfonamide derivatives was examined against the purified enzyme hPON1 and were tested in a triplicate experiment in five different concentrations (0.15, 0.3, 0.45, 0.6, and 0.75 mM).

Sequence of Serum paraoxonase/arylesterase 1 (P27169 whole entry): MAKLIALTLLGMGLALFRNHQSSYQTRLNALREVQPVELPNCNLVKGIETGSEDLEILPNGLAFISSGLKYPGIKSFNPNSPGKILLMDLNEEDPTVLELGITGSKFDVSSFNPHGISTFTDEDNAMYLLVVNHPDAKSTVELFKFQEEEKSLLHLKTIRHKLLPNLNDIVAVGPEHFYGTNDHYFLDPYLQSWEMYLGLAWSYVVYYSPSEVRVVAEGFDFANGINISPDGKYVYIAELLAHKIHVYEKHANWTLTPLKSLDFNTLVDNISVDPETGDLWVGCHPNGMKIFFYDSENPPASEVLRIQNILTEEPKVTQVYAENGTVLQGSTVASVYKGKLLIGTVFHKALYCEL

SMILES | IC50 | Ki
CC(=O)NS(=O)(=O)c1ccc(N)cc1 [Cetamide] | 180 µM | 86 µM
Nc1nnc(S(N)(=O)=O)s1 [1,3,4-thiadiazole-2-sulfonamide 15] | 1240 µM | 2010 µM
NS(=O)(=O)c1cc(C(=O)O)c(NCc2ccco2)cc1Cl [4-chloro-2-[(furan-2-ylmethyl)amino]-5-sulfamoylbenzoic acid] | 360 µM | 702 µM
CC(=O)Nc1nnc(S(N)(=O)=O)s1 [Acetazolamide, AAZ] | 800 µM | 743 µM
NCc1ccc(S(N)(=O)=O)cc1 [aromatic sulfonamide compound 6] | 190 µM | 340 µM
